Legend:
barnyardgrass [1] = assay: Test B flooded paddy test; assay type: in vivo, Echinochloa crus-galli; settings: 1000 g ai/ha, scale 0 to 100 (0 no effect, 100 complete control)
Summary of the method: (§1)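 Visual ratings, 0 (no effect) to 100 (complete control), made versus controls after 13–15 d greenhouse. Paddy plants treated at 2-leaf stage; postemergence plants at 1- to 4-leaf stage, 2–18 cm tall.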

[2] = tested on: small flower umbrella sedge; assay: Test B flooded paddy test; assay type: in vivo, Cyperus difformis; settings: 1000 g ai/ha, scale 0 to 100 (0 no effect, 100 complete control)
Summary of the method: as §1

lambsquarters = assay: Test B pre-/postemergence herbicide test; assay type: in vivo, Chenopodium album; settings: for Plant response rating (0 to 100 scale), Lambsquarters: 0 is no effect, 100 is complete control, preemergence; for Lambsquarters plant response rating: scale 0 (no effect) to 100 (complete control)
Summary of the method: (§2)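 Formulation: non-phytotoxic solvent mix with surfactant. Timing: preemergence on seed and postemergence on 2–18 cm plants, applied concurrently. Readout after 13–15 d greenhouse: visual 0–100 control rating against controls.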

rice = assay: Test B flooded paddy test; assay type: in vivo, Oryza sativa; settings: 1000 g ai/ha, scale 0 to 100 (0 no effect, 100 complete control)
Summary of the method: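 Scale 0–100: zero equals no visible effect, 100 complete control, judged by eye relative to controls. Timing: 13 to 15 days in greenhouse post-treatment. Growth stage at spraying: two leaves (paddy) or one to four leaves, 2–18 cm (postemergence).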

barnyardgrass [3] = assay: Test B pre-/postemergence herbicide test; assay type: in vivo, Echinochloa crus-galli; settings: for Plant response rating (0 to 100 scale), Barnyardgrass: 0 is no effect, preemergence
Summary of the method: (§3)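 Visual rating, 0 (no effect) to 100 (complete control), versus untreated controls after 13–15 d in greenhouse. Pre- and postemergence applications (postemergence plants 2–18 cm, 1–4 leaves); flooded paddy arm at 2-leaf stage. Compounds in non-phytotoxic solvent plus surfactant.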

cocklebur = assay: Test B pre-/postemergence herbicide test; assay type: in vivo, Xanthium strumarium; settings: for Plant response rating (0 to 100 scale), Cocklebur: 0 is no effect, preemergence
Summary of the method: as §3

velvetleaf = assay: Test B pre-/postemergence herbicide test; assay type: in vivo, Abutilon theophrasti; settings: for Plant response rating (0 to 100 scale), Velvetleaf: 0 is no effect, 100 is complete control, preemergence; for Velvetleaf plant response rating: scale 0 (no effect) to 100 (complete control)
Summary of the method: as §2

Surinam grass = assay: Test B pre-/postemergence herbicide test; assay type: in vivo, Urochloa decumbens; settings: for Plant response rating (0 to 100 scale), Surinam Grass: 0 is no effect, 100 is complete control, preemergence; for Surinam Grass plant response rating: scale 0 (no effect) to 100 (complete control)
Summary of the method: as §2

morningglory = assay: Test B pre-/postemergence herbicide test; assay type: in vivo, Ipomoea coccinea; settings: for Plant response rating (0 to 100 scale), Morningglory: 0 is no effect, 100 is complete control, preemergence; for Morningglory plant response rating: scale 0 (no effect) to 100 (complete control)
Summary of the method: as §3

wheat = assay: Test B postemergence herbicide test; assay type: in vivo, Triticum aestivum; set-up: key to Wheat plant response rating: 0 = no effect, 100 = complete control
Summary of the method: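 Treated at 2-leaf (paddy) or 1–4-leaf, 2–18 cm (postemergence); greenhouse 13–15 d; visual score vs control, 0 none to 100 complete control; dash = not tested.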

blackgrass = assay: Test B postemergence herbicide test; assay type: in vivo, Alopecurus myosuroides
Summary of the method: as §1

ducksalad = assay: Test B flooded paddy test; assay type: in vivo, Heteranthera limosa; settings: 1000 g ai/ha, scale 0 to 100 (0 no effect, 100 complete control)
Summary of the method: as §1

giant foxtail = assay: Test B pre-/postemergence herbicide test; assay type: in vivo, Setaria faberi; settings: for Plant response rating (0 to 100 scale), Foxtail, Giant: 0 is no effect, preemergence
Summary of the method: as §2

pigweed = assay: Test B pre-/postemergence herbicide test; assay type: in vivo, Amaranthus retroflexus; settings: for Pigweed plant response rating: scale 0 (no effect) to 100 (complete control); for Plant response rating (0 to 100 scale), Pigweed: 0 is no effect, 100 is complete control, preemergence
Summary of the method: as §2

large crabgrass = assay: Test B pre-/postemergence herbicide test; assay type: in vivo, Digitaria sanguinalis; settings: for Plant response rating (0 to 100 scale), Crabgrass, Large: 0 is no effect, preemergence
Summary of the method: as §2

[4] = 125 g ai/ha, visual rating, postemergence
[5] = 125 g ai/ha, 100 is complete control
[6] = 125 g ai/ha, visual rating, scale 0 (no effect) to 100 (complete control), postemergence
[7] = postemergence, 500 g ai/ha, scale 0 to 100, 0 is no effect, 100 is complete control
[8] = 500 g ai/ha, scale 0 to 100, 0 no effect, 100 complete control, preemergence
[9] = Postemergence, 500 g ai/ha, scale 0 (no effect) to 100 (complete control)

Row | SMILES | Barnyardgrass plant response rating (barnyardgrass [1]) | Sedge, Umbrella plant response rating [2] | Plant response rating (0 to 100 scale), Lambsquarters (lambsquarters; 125 g ai/ha) | Lambsquarters plant response rating (lambsquarters; [4]) | Lambsquarters plant response rating (lambsquarters; Postemergence, 500 g ai/ha) | Rice plant response rating (rice) | Plant response rating (0 to 100 scale), Barnyardgrass (barnyardgrass [3]; [5]) | Barnyardgrass plant response rating (barnyardgrass [3]; [6]) | Plant response rating (0 to 100 scale), Cocklebur (cocklebur; [5]) | Cocklebur plant response rating (cocklebur; [6]) | Plant response rating (0 to 100 scale), Velvetleaf (velvetleaf; 125 g ai/ha) | Velvetleaf plant response rating (velvetleaf; [4]) | Velvetleaf plant response rating (velvetleaf; Postemergence, 500 g ai/ha) | Plant response rating (0 to 100 scale), Surinam Grass (Surinam grass; 125 g ai/ha) | Surinam Grass plant response rating (Surinam grass; [4]) | Surinam Grass plant response rating (Surinam grass; Postemergence, 500 g ai/ha) | Plant response rating (0 to 100 scale), Morningglory (morningglory; 125 g ai/ha) | Morningglory plant response rating (morningglory; [4]) | Morningglory plant response rating (morningglory; Postemergence, 500 g ai/ha) | Wheat plant response rating (wheat; [6]) | other results
1 | CCc1nn(C(C)(C)CC)nc1C(=O)Nc1cccc(C(=O)N(C)C)c1 [Compound 372] | 90 | 90 | 100 | 40 | 90 | 90 | 80 | 10 | 10 | 20 | 10 | 10 | 30 | 50 | 10 | 10 | 10 | 20 | 60 | 0 | Barnyardgrass plant response rating (barnyardgrass [3]; [7]): 60; Cocklebur plant response rating (cocklebur; [7]): 30; Wheat plant response rating (wheat; [8]): 90; Wheat plant response rating (wheat; [9]): 10; Blackgrass plant response rating (blackgrass; [6]): 10; Blackgrass plant response rating (blackgrass; [7]): 30; Ducksalad plant response rating (ducksalad): 90; Plant response rating (0 to 100 scale), Foxtail, Giant (giant foxtail; [5]): 60; Foxtail, Giant plant response rating (giant foxtail; [6]): 30; Foxtail, Giant plant response rating (giant foxtail; [7]): 50; Pigweed plant response rating (pigweed; [4]): 40; Pigweed plant response rating (pigweed; Postemergence, 500 g ai/ha): 80; Plant response rating (0 to 100 scale), Crabgrass, Large (large crabgrass; [5]): 80; Crabgrass, Large plant response rating (large crabgrass; [6]): 10; Crabgrass, Large plant response rating (large crabgrass; [7]): 20
2 | CCNC(=O)c1cccc(NC(=O)c2nn(C(C)(C)CC)nc2CC)c1 [Compound 376] | 70 | 80 | 100 | 70 | 90 | 60 | 80 | 10 | 0 | 20 | 10 | 20 | 40 | 40 | 10 | 20 | 10 | 30 | 60 | 10 | Barnyardgrass plant response rating (barnyardgrass [3]; [7]): 40; Cocklebur plant response rating (cocklebur; [7]): 30; Wheat plant response rating (wheat; [8]): 90; Wheat plant response rating (wheat; [9]): 20; Blackgrass plant response rating (blackgrass; [6]): 10; Blackgrass plant response rating (blackgrass; [7]): 40; Ducksalad plant response rating (ducksalad): 90; Plant response rating (0 to 100 scale), Foxtail, Giant (giant foxtail; [5]): 70; Foxtail, Giant plant response rating (giant foxtail; [6]): 30; Foxtail, Giant plant response rating (giant foxtail; [7]): 60; Plant response rating (0 to 100 scale), Pigweed (pigweed; 125 g ai/ha): 100; Pigweed plant response rating (pigweed; [4]): 70; Pigweed plant response rating (pigweed; Postemergence, 500 g ai/ha): 90; Plant response rating (0 to 100 scale), Crabgrass, Large (large crabgrass; [5]): 80; Crabgrass, Large plant response rating (large crabgrass; [6]): 10; Crabgrass, Large plant response rating (large crabgrass; [7]): 50
3 | C#CCNC(=O)c1cccc(NC(=O)c2nn(C(C)(C)C)nc2CC)c1 [Compound 380] | 70 | 70 | 90 | 60 | 70 | 70 | 70 | 0 | 0 | 20 | 10 | 10 | 30 | 40 | 10 | 30 | 10 | 20 | 60 | 10 | Barnyardgrass plant response rating (barnyardgrass [3]; [7]): 0; Cocklebur plant response rating (cocklebur; [7]): 30; Wheat plant response rating (wheat; [8]): 100; Wheat plant response rating (wheat; [9]): 10; Blackgrass plant response rating (blackgrass; [6]): 20; Blackgrass plant response rating (blackgrass; [7]): 40; Ducksalad plant response rating (ducksalad): 80; Plant response rating (0 to 100 scale), Foxtail, Giant (giant foxtail; [5]): 70; Foxtail, Giant plant response rating (giant foxtail; [6]): 0; Foxtail, Giant plant response rating (giant foxtail; [7]): 20; Plant response rating (0 to 100 scale), Pigweed (pigweed; 125 g ai/ha): 100; Pigweed plant response rating (pigweed; [4]): 50; Pigweed plant response rating (pigweed; Postemergence, 500 g ai/ha): 80; Plant response rating (0 to 100 scale), Crabgrass, Large (large crabgrass; [5]): 90; Crabgrass, Large plant response rating (large crabgrass; [6]): 0; Crabgrass, Large plant response rating (large crabgrass; [7]): 10
4 | Cc1nn(C(C)(C)C)nc1C(=O)Nc1cccc(C(=O)N(C)C)c1 [Compound 391] | 90 | 80 | 100 | 70 | 90 | 90 | 100 | 10 | 70 | 30 | 80 | 40 | 60 | 100 | 10 | 30 | 90 | 30 | 70 | 0 | Barnyardgrass plant response rating (barnyardgrass [3]; [9]): 30; Cocklebur plant response rating (cocklebur; [9]): 30; Wheat plant response rating (wheat; [8]): 100; Wheat plant response rating (wheat; [9]): 10; Blackgrass plant response rating (blackgrass; [6]): 30; Blackgrass plant response rating (blackgrass; [9]): 70; Ducksalad plant response rating (ducksalad): 90; Plant response rating (0 to 100 scale), Foxtail, Giant (giant foxtail; [5]): 90; Foxtail, Giant plant response rating (giant foxtail; [6]): 20; Foxtail, Giant plant response rating (giant foxtail; [9]): 30; Plant response rating (0 to 100 scale), Pigweed (pigweed; 125 g ai/ha): 100; Pigweed plant response rating (pigweed; [4]): 50; Pigweed plant response rating (pigweed; Postemergence, 500 g ai/ha): 70; Plant response rating (0 to 100 scale), Crabgrass, Large (large crabgrass; [5]): 100; Crabgrass, Large plant response rating (large crabgrass; [6]): 10; Crabgrass, Large plant response rating (large crabgrass; [9]): 30
5 | CCNC(=O)c1ccc(F)c(N(C(C)=O)C(=O)c2cc(C(C)(C)C)nn2CC)c1 [Compound 399] | 90 | 80 | 100 | 80 | 100 | 80 | 90 | 10 | 50 | 60 | 80 | 20 | 80 | 90 | 20 | 40 | 10 | 20 | 40 | 10 | Barnyardgrass plant response rating (barnyardgrass [3]; [9]): 40; Cocklebur plant response rating (cocklebur; [9]): 80; Wheat plant response rating (wheat; [8]): 100; Wheat plant response rating (wheat; [9]): 30; Blackgrass plant response rating (blackgrass; [6]): 30; Blackgrass plant response rating (blackgrass; [9]): 70; Ducksalad plant response rating (ducksalad): 90; Plant response rating (0 to 100 scale), Foxtail, Giant (giant foxtail; [5]): 100; Foxtail, Giant plant response rating (giant foxtail; [6]): 30; Foxtail, Giant plant response rating (giant foxtail; [9]): 50; Plant response rating (0 to 100 scale), Pigweed (pigweed; 125 g ai/ha): 100; Pigweed plant response rating (pigweed; [4]): 60; Pigweed plant response rating (pigweed; Postemergence, 500 g ai/ha): 80; Plant response rating (0 to 100 scale), Crabgrass, Large (large crabgrass; [5]): 100; Crabgrass, Large plant response rating (large crabgrass; [6]): 20; Crabgrass, Large plant response rating (large crabgrass; [9]): 30
